Among the test systems are SF-295; TK-10; SR; HOP-92; SK-OV-3; MOLT-4; HCT-15; NCI-H522; LOX IMVI; SW-620; 786-0; NCI-H23; SK-MEL-2; SN12C; NCI-H226; SNB-19; A549; EKVX; HL-60.
Test in all cases: DTP human tumour cell line panel, 48 h

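Step 1: Grow cells in 96-well plates. Step 2: Expose to compound for 48 hours at 5 concentrations. Step 3: Interpolate endpoints linearly; if unreached, use highest concentration. GI50: concentration for 50% inhibition of growth.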 Calls of active or inactive are those of the source. Rule as the data show it: active = GI50 up to about 1.1 µM and inactive = higher. Some results are limits rather than exact numbers.

The GI50 is the concentration that inhibits growth by half. As to `C=CC(=O)N1C/C(=C\c2ccc(Cl)c(Cl)c2)C(=O)/C(=C/c2ccc(Cl)c(Cl)c2)C1`, the GI50 in the experiment with SF-295 was 0.233 µM (active); with TK-10, 0.501 µM (active); in the experiment with SR, 0.0259 µM (active); with HOP-92, 1.19 µM (inactive); in the experiment with SK-OV-3, 0.378 µM (active); in the experiment with MOLT-4 it was 0.103 µM (active). The GI50 is 0.0716 µM with HCT-15; 0.149 µM (active) in the experiment with NCI-H522; 0.288 µM (active) in the experiment with LOX IMVI; 0.0607 µM (active) in the experiment on SW-620; 0.0579 µM (active) with 786-0; 0.2 µM (active) in the experiment on NCI-H23. The GI50 with SK-MEL-2 is 0.42 µM (active); in the experiment on SN12C it was 0.155 µM (active); with NCI-H226, 1.25 µM (inactive).

As to `Cc1ccc(C(c2c(O)c3ccccc3n(-c3ccccc3)c2=O)c2c(O)c3ccccc3n(-c3ccccc3)c2=O)cc1`, the GI50 was > 100 µM (inactive) with TK-10; 62.4 µM (inactive) in the experiment with SR; > 100 µM (inactive) with HOP-92; > 100 µM (inactive) with SNB-19; 24.2 µM (inactive) in the experiment with MOLT-4; more than 100 µM in the experiment with HCT-15. For the same molecule, the GI50 is > 100 µM (inactive) in the experiment with NCI-H522; > 100 µM (inactive) in the experiment with LOX IMVI; > 100 µM (inactive) in the experiment with SW-620; 38.1 µM (inactive) in the experiment on 786-0; > 100 µM (inactive) in the experiment with NCI-H23; > 100 µM (inactive) in the experiment on A549. The GI50 in the experiment on SK-MEL-2 is > 100 µM (inactive); with SN12C, > 100 µM (inactive); with EKVX, 35.3 µM (inactive); in the experiment with NCI-H226 it was > 100 µM (inactive).

`Cc1ccc(/C=C/C(=O)c2sc(C(N)=S)nc2C)cc1`: the GI50 in the experiment on SF-295 was > 100 µM (inactive); in the experiment on TK-10 it was > 100 µM (inactive); in the experiment on HOP-92 it was > 100 µM (inactive); in the experiment with SK-OV-3 it was > 100 µM (inactive); with MOLT-4, > 100 µM (inactive); with HCT-15, more than 100 µM. For the same molecule, the GI50 with NCI-H522, with LOX IMVI, in the experiment with SW-620, with 786-0, in the experiment on NCI-H23 and in the experiment on A549 was > 100 µM (inactive) each time. The GI50 in the experiment with SK-MEL-2, in the experiment on SN12C, with EKVX, in the experiment with NCI-H226 and with HL-60 was > 100 µM (inactive) in each case.

For `Cn1c(=O)c2/c(n(C)c1=O)=N\C=c1\c(=O)n(C)c(=O)n(C)\c1=N\C=2`, the GI50 was > 100 µM (inactive) in the experiment on SF-295; > 100 µM (inactive) with TK-10; > 100 µM (inactive) in the experiment with HOP-92; > 100 µM (inactive) in the experiment on SNB-19; > 100 µM (inactive) with MOLT-4; more than 100 µM in the experiment with HCT-15. Besides, the GI50 with NCI-H522, with SW-620, with 786-0, with NCI-H23, in the experiment with A549 and in the experiment with SK-MEL-2 was > 100 µM (inactive) in each case. The GI50 with SN12C, in the experiment with EKVX and in the experiment with HL-60 was > 100 µM (inactive) throughout.

For `COc1ccc(-c2c(N)[n+]([O-])c3ccccc3[n+]2[O-])cc1OC`, the GI50 in the experiment on SF-295, with SR, with HOP-92, with SNB-19, in the experiment with SK-OV-3 and with MOLT-4 was > 100 µM (inactive) in each case. Also, the GI50 is more than 100 µM in the experiment on HCT-15; > 100 µM (inactive) in the experiment with NCI-H522; > 100 µM (inactive) with SW-620; > 100 µM (inactive) in the experiment on 786-0; > 100 µM (inactive) with NCI-H23; > 100 µM (inactive) in the experiment on A549. In addition, the GI50 in the experiment on SK-MEL-2, with SN12C, with EKVX, in the experiment with NCI-H226 and in the experiment with HL-60 was > 100 µM (inactive) in each case.

For `CN(C)c1ccc(C(=C(c2ccc(N(C)C)cc2)c2ccc(N(C)C)cc2)c2ccc(N(C)C)cc2)cc1`, the GI50 in the experiment with SF-295 is 13.9 µM (inactive); with TK-10, 16 µM (inactive); in the experiment on SR, 9.04 µM (inactive); in the experiment on SNB-19, 13.8 µM (inactive); in the experiment with SK-OV-3 it was 20.8 µM (inactive); in the experiment with MOLT-4 it was 14.6 µM (inactive). Also, the concentration for 50% growth inhibition (GI50) in the experiment with HCT-15 was 14.4 µM; with NCI-H522 it was 0.301 µM (active); in the experiment with LOX IMVI it was 13.5 µM (inactive); with SW-620, 1.87 µM (inactive); in the experiment with 786-0, 11.4 µM (inactive); with NCI-H23, 17 µM (inactive). Besides, the GI50 in the experiment on A549 is 16.3 µM (inactive); with SK-MEL-2 it was 12.1 µM (inactive); in the experiment with SN12C, 16.2 µM (inactive); in the experiment with EKVX it was 18.7 µM (inactive); in the experiment on NCI-H226, 19.8 µM (inactive); in the experiment with HL-60, 5.36 µM (inactive).

As for `CCOP(=O)(OCC)C(C(=O)OC)C(=O)C(=O)Nc1cccc([N+](=O)[O-])c1` (stereo not given), the GI50 in the experiment with SF-295, in the experiment on TK-10, in the experiment with SR, with SNB-19, with SK-OV-3 and in the experiment on MOLT-4 was > 100 µM (inactive) throughout. For the same molecule, the GI50 with HCT-15 is more than 100 µM; in the experiment with NCI-H522, > 100 µM (inactive); with LOX IMVI, > 100 µM (inactive); in the experiment on SW-620 it was > 100 µM (inactive); in the experiment with 786-0, > 100 µM (inactive); in the experiment on NCI-H23, > 100 µM (inactive). The GI50 with A549, with SK-MEL-2, in the experiment with SN12C, with EKVX, with NCI-H226 and in the experiment with HL-60 was > 100 µM (inactive) throughout.

With `Cc1c(Cl)ccc2c1NC(=O)C2(O)CC(=O)c1ccc2ccccc2c1` (stereo not given), the GI50 with SF-295 is 88.3 µM (inactive); in the experiment on TK-10, > 100 µM (inactive); in the experiment with HOP-92, 44 µM (inactive); in the experiment on SNB-19, 45.8 µM (inactive); in the experiment with SK-OV-3 it was > 100 µM (inactive); in the experiment on MOLT-4 it was 18.6 µM (inactive). The concentration for 50% growth inhibition (GI50) was 41.1 µM in the experiment on HCT-15; 24.7 µM (inactive) in the experiment with NCI-H522; 44.7 µM (inactive) with LOX IMVI; 47.8 µM (inactive) with SW-620; 29 µM (inactive) in the experiment with 786-0; 28.2 µM (inactive) with NCI-H23. The GI50 with A549 is 53.3 µM (inactive); in the experiment on SK-MEL-2, > 100 µM (inactive); in the experiment with SN12C, 76.7 µM (inactive); in the experiment on EKVX, 84.7 µM (inactive); in the experiment with NCI-H226, 24.4 µM (inactive).

With `Cn1c2ccccc2c2cc(-c3ccccc3)c3c(c21)C(=O)c1ccccc1C3=O`, the GI50 in the experiment on SF-295 is 21.5 µM (inactive); with TK-10, 48.3 µM (inactive); in the experiment with SR it was 4.79 µM (inactive); with HOP-92, 12.3 µM (inactive); in the experiment on SNB-19, 61.1 µM (inactive); in the experiment on SK-OV-3, 38.3 µM (inactive). Besides, the GI50 is 5.04 µM (inactive) in the experiment with MOLT-4; 15.2 µM (inactive) with NCI-H522; 18.8 µM (inactive) in the experiment with SW-620; 16.9 µM (inactive) with 786-0; 5.79 µM (inactive) with NCI-H23; 20.4 µM (inactive) in the experiment with A549. For the same molecule, the GI50 in the experiment on SK-MEL-2 was 19.5 µM (inactive); in the experiment on SN12C it was 28.6 µM (inactive); in the experiment on EKVX, > 10 µM (inactive); in the experiment with NCI-H226, 22 µM (inactive); in the experiment on HL-60, 9.35 µM (inactive).

For `SC1=NNC2(C(Cl)=N1)c1ccccc1-c1ccccc12`, the GI50 in the experiment with TK-10 is > 10 µM (inactive); with SR it was > 10 µM (inactive); in the experiment on HOP-92 it was > 10 µM (inactive); in the experiment with SK-OV-3, > 10 µM (inactive); in the experiment with MOLT-4, > 10 µM (inactive); with HCT-15 it was more than 10 µM. In addition, the GI50 in the experiment on LOX IMVI, in the experiment with SW-620, in the experiment with 786-0, in the experiment with NCI-H23, in the experiment with A549 and in the experiment on SN12C was > 10 µM (inactive) throughout. In addition, the GI50 in the experiment on EKVX, with NCI-H226 and in the experiment on HL-60 was > 10 µM (inactive) each time.

On to `CCCCN(CCCC)CC(C(=O)Nc1ccc([N+](=O)[O-])cc1[N+](=O)[O-])/C(C)=N\NC(=O)c1ccncc1` (stereo not given), for which the GI50 with SF-295 was > 100 µM (inactive); in the experiment on TK-10 it was > 100 µM (inactive); in the experiment with HOP-92 it was 90.6 µM (inactive); with SNB-19 it was > 100 µM (inactive); in the experiment with SK-OV-3 it was > 100 µM (inactive); in the experiment with MOLT-4, > 100 µM (inactive). Moreover, the GI50 in the experiment with HCT-15 was more than 100 µM; in the experiment on NCI-H522, > 100 µM (inactive); with LOX IMVI, > 100 µM (inactive); in the experiment with SW-620 it was > 100 µM (inactive); in the experiment on 786-0, > 100 µM (inactive); in the experiment with NCI-H23, > 100 µM (inactive). For the same molecule, the GI50 with A549, in the experiment on SK-MEL-2, in the experiment with SN12C, in the experiment with EKVX and with HL-60 was > 100 µM (inactive) throughout.

As to `COC(=O)C1=Cc2c(cc(OC)c(OC)c2OC)[C@H](c2ccc(OC)c(OC)c2OC)C1C(=O)OC` (stereo not given in full), the GI50 was 65.9 µM (inactive) in the experiment on SF-295; > 100 µM (inactive) with TK-10; 46.7 µM (inactive) with SR; 17.4 µM (inactive) in the experiment on HOP-92; > 100 µM (inactive) in the experiment on SNB-19; > 100 µM (inactive) with SK-OV-3. For the same molecule, the GI50 was 83 µM (inactive) in the experiment on MOLT-4; 75 µM in the experiment on HCT-15; 89.9 µM (inactive) with NCI-H522; > 100 µM (inactive) with LOX IMVI; > 100 µM (inactive) in the experiment on SW-620; > 100 µM (inactive) with 786-0. Also, the GI50 in the experiment on NCI-H23 was > 100 µM (inactive); in the experiment on A549, > 100 µM (inactive); in the experiment with SN12C, > 100 µM (inactive); with EKVX it was > 100 µM (inactive); with NCI-H226 it was > 100 µM (inactive); with HL-60 it was 54.6 µM (inactive).

Source of the values: ChEMBL document CHEMBL1201862, “PubChem BioAssay data set” (2004).
